US20040082503A1, “Methods for treatment of diabetes using peptide analogues of insulin” (Neurocrine Biosciences, Inc., priority 1998, published 2004)

What was measured:
[1] = test system: Insulin specific NOD T cell clone PD12-4.4; test: Proliferation of insulin-specific NOD T cell clone PD12-4.4; format: cell-based, mouse (NOD); settings: 50 μg/ml peptide, 72 h, 3H-thymidine; no antigen 350 cpm
Experimental: (§1) Insulin specific NOD T cell lines were established by culturing lymphocytes isolated from islet-infiltrating populations by in vitro stimulation with either porcine insulin at 25 μg/ml and irradiated NOD islet cell in the presence of irradiated NOD spleen cells as antigen presenting cells and cytokines. To obtain the infiltrating lymphocytes the following procedures were performed (see Wegmann et al., Eur. J. Immunol. 24:1853, 1994): the pancreas from the NOD mouse was digested with collagenase and individual islets were isolated manually. The infiltrating lymphocytes were then obtained by mild trypsin digestion of the islets. The insulin specific T cell lines or clones were propagated by serial stimulation in the presence of NOD spleen cells, porcine insulin and lymphokines. Clones were obtained by limiting dilution of the B chain (9-23) specific T cell lines in the presence of the antigen presenting cells and porcine insulin at 25 μg/ml. Wells with a growing population of cells following limiting dilution were expanded in appropriate medium, and after one cycle of growth were tested for reactivity to the B chain (9-23) peptide of insulin by evaluating the proliferative response.
(§2) Insulin B chain (9-23) (SEQ ID NO:2) specific mouse (NOD) T cell clones were isolated from infiltrated islets as described in Example 2. Peptide analogues with single alanine substitutions were prepared as described in Example 1. The effect of each analogue on T cell proliferation was then evaluated using an assay performed in 96-well flat bottom microtiter plates (see Daniel et al., Eur. J. Immunol. 25:1056, 1995). Briefly 25,000 T cell clones along with 1 million irradiated NOD spleen cells were cultured in the presence of 50 μg/ml of insulin B chain 9-23 peptide or any of the alanine substituted peptides listed below in triplicate sets. The plates were incubated for a total of 72 hours in 7% carbon dioxide atmosphere with a pulse of 1 μCi/well of tritiated thymidine for the last 6-8 hours of culture. Cells were harvested on a glass fiber filter and the associated radioactivity was counted in a liquid scintillation counter. Results are expressed as mean counts per minute of triplicate wells.

[2] = test system: Insulin specific NOD T cell clone PD6-4.3; test: Proliferation of insulin-specific NOD T cell clone PD6-4.3; format: cell-based, mouse (NOD); settings: 50 μg/ml peptide, 72 h, 3H-thymidine; no antigen 163 cpm
Experimental: as §1, §2

[3] = test system: Insulin specific NOD T cell clone PD12-4.34; test: Proliferation of insulin-specific NOD T cell clone PD12-4.34; format: cell-based, mouse (NOD); settings: 50 μg/ml peptide, 72 h, 3H-thymidine; no antigen 231 cpm
Experimental: as §1, §2

[4] = test system: Insulin specific NOD T cell clone PD12-2.40; test: Proliferation of insulin-specific NOD T cell clone PD12-2.40; format: cell-based, mouse (NOD); settings: 50 μg/ml peptide, 72 h, 3H-thymidine; no antigen 682 cpm
Experimental: as §1, §2
(§3) NOD T cell clones were incubated in the presence of 50 μM of either the native B chain (9-23) peptide or NBI-6024. The data in Table 3 represent the mean of triplicate sample±standard error of the mean. Within Table 3, S.I. (Stimulation Index)=proliferation (cpm) in the presence of the peptide/proliferation (cpm) in medium alone.

[5] = test system: Insulin specific NOD T cell clone PD12-4.29; test: Proliferation of insulin-specific NOD T cell clone PD12-4.29; format: cell-based, mouse (NOD); settings: 50 μg/ml peptide, 72 h, 3H-thymidine; no antigen 789 cpm
Experimental: as §1, §2

[6] = test system: Insulin B chain (9-23) specific mouse (NOD) T cell clones; test: Proliferation of insulin-specific NOD T cell clones (summary over clones); format: cell-based; settings: five separate T cell clones; 50 μg/ml peptide
Experimental: as §1, §2, §3

[7] = test system: B chain (9-23) specific mouse T cell clones; test: Antagonism of T cell proliferation assay (FIG. 2); format: cell-based, mouse (NOD); settings: varying amounts of analogue
Experimental: FIG. 2 is a graph showing the proliferative response (measured in cpm) of a NOD mouse T cell clone to a native insulin B chain (9-23) peptide in the presence of varying amounts of representative peptide analogues, in which different residues are substituted with alanine, as indicated.
Peptide analogues of B chain (9-23) containing alanine substitutions at residue 12, 13, 15 or 16 or the doubly substituted peptide at positions 16 and 19 (A^16,19; NBI-6024) were prepared as described in Example 1. T cell antagonism was detected by evaluating the ability of the peptide analogues to inhibit T cell proliferation induced by native B chain (9-23) (SEQ ID NO:2). In this assay, antigen presenting cells were first irradiated and then incubated with the competing peptide analogue and the native B chain (9-23) peptide. T cells were then added to the culture. Various concentrations of candidate peptide analogues were included in cultures which were incubated for a total of 4 days. Following this incubation period, each culture was pulsed with 1 μCi of [^3H]-thymidine for an additional 12-18 hours. Cultures were then harvested on fiberglass filters and counted as above. Mean CPM and standard error of the mean were calculated from data determined in triplicate cultures.

[8] = test system: NOD mice (spontaneous diabetes); test: Reduction of incidence of diabetes in NOD mice; format: in vivo, NOD mouse; settings: NOD mice, 400 μg s.c. weekly, 13 treatments; neurotensin as control; FIG. 10

Substance	Response (cpm) of T cell clone PD12-4.4 [1]	Response (cpm) of T cell clone PD6-4.3 [2]	Response (cpm) of T cell clone PD12-4.34 [3]	Response (cpm) of T cell clone PD12-2.40 [4]	Response (cpm) of T cell clone PD12-4.29 [5]	Proliferation relative to the 9-23 native peptide of insulin B chain [6]	Inhibition of T cell proliferation induced by native B chain (9-23) [7]	Incidence of diabetes (percent of mice diabetic) [8]
Position 19: insulin B chain (9-23) analogue, native C at position 19 substituted with A	4295 cpm	7678 cpm	689 cpm	34212 cpm	6054 cpm	–	–	–
Position 12: insulin B chain (9-23) analogue, native V at position 12 substituted with A (SHLAEALYLVCGERG)	1129 cpm	8292 cpm	194 cpm	671 cpm	15041 cpm	either a lack of proliferation or significantly reduced proliferation	capable of attenuating the response	–
Position 17: insulin B chain (9-23) analogue, native L at position 17 substituted with A	332 cpm	553 cpm	4360 cpm	19321 cpm	1460 cpm	either a lack of proliferation or significantly reduced proliferation	–	–
Position 23: insulin B chain (9-23) analogue, native G at position 23 substituted with A	3228 cpm	14304 cpm	791 cpm	75441 cpm	18422 cpm	–	–	–
Position 18: insulin B chain (9-23) analogue, native V at position 18 substituted with A	225 cpm	234 cpm	721 cpm	44785 cpm	1193 cpm	either a lack of proliferation or significantly reduced proliferation	–	–
Position 11: insulin B chain (9-23) analogue, native L at position 11 substituted with A	474 cpm	14148 cpm	190 cpm	2594 cpm	18416 cpm	–	–	–
Position 21: insulin B chain (9-23) analogue, native E at position 21 substituted with A	7900 cpm	91 cpm	773 cpm	39087 cpm	4904 cpm	–	–	–
Position 15: insulin B chain (9-23) analogue, native L at position 15 substituted with A (SHLVEAAYLVCGERG)	675 cpm	161 cpm	191 cpm	1422 cpm	809 cpm	either a lack of proliferation or significantly reduced proliferation	–	–
Position 16: insulin B chain (9-23) analogue, native Y at position 16 substituted with A (SHLVEALALVCGERG)	779 cpm	98 cpm	202 cpm	539 cpm	636 cpm	either a lack of proliferation or significantly reduced proliferation	capable of attenuating the response	–
Position 20: insulin B chain (9-23) analogue, native G at position 20 substituted with A	1323 cpm	2440 cpm	466 cpm	38685 cpm	13736 cpm	–	–	–
Position 10: insulin B chain (9-23) analogue, native H at position 10 substituted with A	823 cpm	12507 cpm	356 cpm	1409 cpm	15484 cpm	–	–	–
Position 13: insulin B chain (9-23) analogue, native E at position 13 substituted with A (SHLVAALYLVCGERG)	373 cpm	142 cpm	179 cpm	519 cpm	891 cpm	either a lack of proliferation or significantly reduced proliferation	capable of attenuating the response	more pronounced
Position 22: insulin B chain (9-23) analogue, native R at position 22 substituted with A	1313 cpm	6555 cpm	1555 cpm	51721 cpm	12635 cpm	–	–	–
